Measured values published in patent US7261876B2, “Multivalent constructs for therapeutic and diagnostic applications” (Bracco International BV, priority 2002, dated 2007).
Like-named read-outs stand apart in the source and are kept apart here. Positions of bridges follow the written chain, without caps; N, C: chain ends. Non-standard residues stand in square brackets, D forms with d. Residues, ends and D or L forms follow the SMILES beside them. Lys(ivDde) = CC(C)CC(NCCCC[C@H](N)C(=O)O)=C1C(=O)CC(C)(C)CC1=O

Target: T1, KDR (Homo sapiens, UniProt P35968)
T1 construct: host or cells: HUVEC
Test: VEGF-induced KDR receptor activation (phosphorylation) assay in HUVECs
Type: cell-based
Settings: for inhibition at 10 µM: HUVEC, read-out: inhibition of VEGF-induced KDR phosphorylation; for inhibition of VEGF-induced activation of KDR: concentration not given
From the text: Human umbilical vein endothelial cells (HUVECs) (Biowhittaker Cat No. CC-2519) were obtained frozen on dry ice and stored in liquid nitrogen until thawing. These cells were thawed, passaged, and maintained as described by the manufacturer in EGM-MV medium (Biowhittaker Cat No. CC-3125). Cells seeded into 100 mm dishes were allowed to become confluent, then cultured overnight in basal EBM medium lacking serum (Biowhittaker Cat No. CC-3121). The next morning, the medium in the dishes was replaced with 10 mL fresh EBM medium at 37° C. containing either no additive (negative control), 5 ng/mL VEGF (Calbiochem Cat No. 676472 or Peprotech Cat No. 100-20) (positive control), or 5 ng/mL VEGF plus the indicated concentration of the KDR-binding peptide (prepared as described above). In some cases, a neutralizing anti-KDR antibody (Cat No. AF357, R&D Systems) was used as a positive control inhibitor of activation. In such cases, the antibody was pre-incubated with the test cells for 30 min at 37° C. prior to the addition of fresh medium containing both VEGF and the antibody. After incubating the dishes 5 min in a 37° C. tissue culture incubator they were washed three times with ice-cold Dulbecco's phosphate buffered saline (D-PBS) containing calcium and magnesium and placed on ice without removing the last 10 mL of D-PBS. The first dish of a set was drained and 0.5 mL of Triton lysis buffer was added (20 mM Tris base pH 8.0, 137 mM NaCl, 10% glycerol, 1% Triton X-100, 2 mM EDTA (ethylenediaminetetraacetic acid), 1 mM PMSF (phenylmethylsulfonylfluoride), 1 mM sodium orthovanadate, 100 mM NaF, 50 mM sodium pyrophosphate, 10 μg/mL leupeptin, 10 μg/mL aprotinin). The cells were quickly scraped into the lysis buffer using a cell scraper (Falcon, Cat No. 353087), dispersed by pipeting up and down briefly, and the resulting lysate was transferred to the second drained dish of the pair. Another 0.5 mL of lysis buffer was used to rinse out the first dish then transferred to the second dish, which was then also scraped and dispersed. The pooled lysate from the two dishes was transferred to a 1.5 mL Eppindorf tube. The above procedure was repeated for each of the controls and test samples (KDR-binding peptides), one at a time. The lysates were stored on ice until all the samples had been processed. At this point samples were either stored at −70° C. or processed to the end of the assay without interruption.
The lysates, either freshly prepared or frozen and thawed, were precleared by adding 20 μL of protein A-sepharose beads (Sigma 3391, preswollen in D-PBS), washed three times with a large excess of D-PBS, reconstituted with 6 mL D-PBS to generate a 50% slurry) and rocked at 4° C. for 30 min. The beads were pelleted by centrifugation for 2 min in a Picofuge (Stratgene, Cat No. 400550) at 2000×g and the supernatants transferred to new 1.5 mL tubes. 20 μg of anti-Flk-1 antibody (Santa Cruz Biotechnology, Cat No. sc-504) was added to each tube, and the tubes were incubated overnight (16–18 h) at 4° C. on a rotator to immunoprecipitate KDR. The next day 40 μL of protein A-sepharose beads were added to the tubes, which were then incubated at 4° C. for 1 h on a rotator. The beads in each tube were subsequently washed three times by centrifuging for 2 min in a Picofuge, discarding the supernatant, and dispersing the beads in 1 mL freshly added TBST buffer (20 mM Tris base pH 7.5, 137 mM NaCl, and 0.1% Tween 20). After centrifuging and removing the liquid from the last wash, 40 μL of Laemmli SDS-PAGE sample buffer (Bio-Rad, Cat No. 161-0737) was added to each tube and the tubes were capped and boiled for 5 min. After cooling, the beads in each tube were pelleted by centrifuging and the supernatants containing the immunoprecipitated KDR were transferred to new tubes and used immediately or frozen and stored at −70° C. for later analysis.
Detection of phosphorylated KDR as well as total KDR in the immunoprecipitates was carried out by immunoblot analysis. […]

T1 sequence (P35968 20-1356): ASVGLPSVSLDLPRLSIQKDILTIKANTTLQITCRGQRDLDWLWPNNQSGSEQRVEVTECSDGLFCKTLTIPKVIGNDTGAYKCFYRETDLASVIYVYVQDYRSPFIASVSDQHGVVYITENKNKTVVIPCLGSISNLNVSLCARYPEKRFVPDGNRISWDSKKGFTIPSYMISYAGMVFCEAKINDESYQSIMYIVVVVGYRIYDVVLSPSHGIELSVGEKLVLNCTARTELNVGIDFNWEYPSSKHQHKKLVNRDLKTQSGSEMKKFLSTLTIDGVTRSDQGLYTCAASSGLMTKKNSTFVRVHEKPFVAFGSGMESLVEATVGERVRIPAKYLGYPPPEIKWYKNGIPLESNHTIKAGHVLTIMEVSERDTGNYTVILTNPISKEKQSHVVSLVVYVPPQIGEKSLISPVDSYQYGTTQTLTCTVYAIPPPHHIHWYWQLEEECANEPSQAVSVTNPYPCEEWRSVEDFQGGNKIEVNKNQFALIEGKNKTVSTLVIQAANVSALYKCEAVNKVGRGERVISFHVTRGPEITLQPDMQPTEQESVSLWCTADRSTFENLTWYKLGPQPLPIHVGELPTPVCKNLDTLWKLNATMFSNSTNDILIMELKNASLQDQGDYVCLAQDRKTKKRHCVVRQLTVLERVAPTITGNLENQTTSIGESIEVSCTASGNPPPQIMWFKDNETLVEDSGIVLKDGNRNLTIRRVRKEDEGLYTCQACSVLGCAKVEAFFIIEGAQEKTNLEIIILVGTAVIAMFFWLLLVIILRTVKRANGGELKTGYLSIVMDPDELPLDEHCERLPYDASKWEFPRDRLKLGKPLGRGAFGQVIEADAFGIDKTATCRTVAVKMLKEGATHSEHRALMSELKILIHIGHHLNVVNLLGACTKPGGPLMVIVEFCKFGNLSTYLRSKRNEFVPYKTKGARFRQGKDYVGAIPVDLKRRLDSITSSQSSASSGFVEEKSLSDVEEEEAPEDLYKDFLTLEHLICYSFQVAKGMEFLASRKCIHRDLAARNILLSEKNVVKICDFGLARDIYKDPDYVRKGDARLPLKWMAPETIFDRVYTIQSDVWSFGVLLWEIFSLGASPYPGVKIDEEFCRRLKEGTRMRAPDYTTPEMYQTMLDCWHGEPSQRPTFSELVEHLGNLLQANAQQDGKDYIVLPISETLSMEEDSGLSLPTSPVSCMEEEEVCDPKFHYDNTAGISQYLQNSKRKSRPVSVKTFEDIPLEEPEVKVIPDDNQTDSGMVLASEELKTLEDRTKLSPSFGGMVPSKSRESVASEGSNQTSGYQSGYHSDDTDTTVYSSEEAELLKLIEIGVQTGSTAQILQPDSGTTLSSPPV

CC(=O)N[C@@H](C)C(=O)NCC(=O)N[C@@H](Cc1c[nH]c2ccccc12)C(=O)N[C@@H](CC(C)C)C(=O)N[C@@H](CCC(=O)O)C(=O)N[C@H]1CSSC[C@@H](C(=O)N[C@@H](Cc2ccc(O)cc2)C(=O)N[C@@H](CC(N)=O)C(=O)N[C@@H](Cc2ccccc2)C(=O)NCC(=O)N[C@H](C(=O)NCC(=O)NCC(=O)NCC(=O)N[C@@H](CCCCN)C(N)=O)[C@@H](C)O)NC(=O)[C@H](Cc2c[nH]cn2)NC(=O)CNC(=O)[C@H](Cc2ccccc2)NC(=O)[C@H](CCC(=O)O)NC(=O)[C@H](C)NC(=O)[C@H](Cc2ccc(O)cc2)NC1=O [P3-D] (Ac-AGWLECYAEFGHCYNFGTGGGK-NH2; disulfide 6-13)
inhibition at 10 µM (10 μM): ≥ 50%

Ac-AQGDYVYWEIIELTGATDHTPPGGGK-NH2 [P11-D]
inhibition at 10 µM (10 μM): ≥ 50%
inhibition of VEGF-induced activation of KDR: inhibit activation of KDR

Ac-GDSRVC*WEDSWGGEVC*FRYDPGGGK-NH2 [P6-D]
inhibition of VEGF-induced activation of KDR: inhibit activation of KDR

CSCC[C@H](NC(=O)[C@H](Cc1c[nH]cn1)NC(=O)[C@H](CC(=O)O)NC(=O)[C@H](CC(=O)O)NC(=O)CNC(C)=O)C(=O)N[C@H]1CSSC[C@@H](C(=O)N[C@@H](CCSC)C(=O)N[C@@H](Cc2ccc(O)cc2)C(=O)N[C@@H](Cc2c[nH]c3ccccc23)C(=O)N[C@@H](CC(=O)O)C(=O)N2CCC[C@H]2C(=O)NCC(=O)NCC(=O)NCC(=O)N[C@@H](CCCCN)C(N)=O)NC(=O)[C@H](Cc2ccccc2)NC(=O)[C@H](C(C)C)NC(=O)[C@H](Cc2c[nH]cn2)NC(=O)[C@H](CC(=O)O)NC(=O)[C@H](CCC(N)=O)NC(=O)[C@H](Cc2ccc(O)cc2)NC(=O)[C@H](CC(=O)O)NC(=O)[C@@H]2CCCN2C(=O)[C@H](CO)NC(=O)[C@H](CCCNC(=N)N)NC1=O [P16-D] (Ac-GDDHMCRSPDYQDHVFCMYWDPGGGK-NH2; disulfide 6-17)
inhibition of KDR activation (10 μM): did not produce significant inhibition of KDR activation

CSCC[C@H](NC(=O)[C@H](Cc1ccc(O)cc1)NC(=O)[C@H](Cc1c[nH]c2ccccc12)NC(=O)[C@@H]1CSSC[C@H](NC(=O)[C@@H]2CCCN2C(=O)CNC(=O)[C@@H]2CCCN2C(=O)CNC(=O)[C@H](C)NC(C)=O)C(=O)N[C@@H](CCCCNC(CC(C)C)=C2C(=O)CC(C)(C)CC2=O)C(=O)NCC(=O)N[C@@H](Cc2ccc(O)cc2)C(=O)N[C@@H](CCSC)C(=O)N2CCC[C@H]2C(=O)N[C@@H](Cc2c[nH]cn2)C(=O)N[C@@H](CCC(N)=O)C(=O)N1)C(=O)NCC(=O)N[C@H](C(=O)NCC(=O)NCC(=O)NCC(=O)N[C@@H](CCCCN)C(N)=O)[C@@H](C)O [P21-E] (Ac-AGPGPC[Lys(ivDde)]GYMPHQCWYMGTGGGK-NH2; disulfide 6-14)
inhibition of KDR activation (10 μM): did not produce significant inhibition of KDR activation

CC[C@H](C)[C@@H]1NC(=O)[C@H](Cc2c[nH]c3ccccc23)NC(=O)[C@H](CCC(N)=O)NC(=O)CNC(=O)[C@H](CC(N)=O)NC(=O)[C@H](Cc2c[nH]cn2)NC(=O)[C@H](CC(C)C)NC(=O)[C@H](Cc2ccc(O)cc2)NC(=O)[C@@H](NC(=O)[C@H](Cc2c[nH]cn2)NC(=O)[C@H](Cc2c[nH]cn2)NC(=O)[C@H](CC(=O)O)NC(=O)[C@H](CO)NC(=O)CNC(C)=O)CSSC[C@@H](C(=O)N[C@@H](Cc2ccc(O)cc2)C(=O)N2CCC[C@H]2C(=O)N[C@@H](Cc2ccccc2)C(=O)N[C@@H](C)C(=O)N2CCC[C@H]2C(=O)NCC(=O)NCC(=O)NCC(=O)N[C@@H](CCCCN)C(N)=O)NC1=O [P14-D] (Ac-GSDHHCYLHNGQWICYPFAPGGGK-NH2; disulfide 6-15)
inhibition of KDR activation (10 μM): did not produce significant inhibition of KDR activation

CC(=O)NCC(=O)N[C@@H](CC(=O)O)C(=O)N1CCC[C@H]1C(=O)N1CCC[C@H]1C(=O)N[C@@H](CC(C)C)C(=O)N[C@H]1CSSC[C@@H](C(=O)N[C@@H](CC(N)=O)C(=O)N2CCC[C@H]2C(=O)N[C@@H](Cc2ccccc2)C(=O)N[C@@H](CC(=O)O)C(=O)N2CCC[C@H]2C(=O)NCC(=O)NCC(=O)NCC(=O)N[C@@H](CCCCN)C(N)=O)NC(=O)[C@H](Cc2c[nH]cn2)NC(=O)[C@H](Cc2c[nH]cn2)NC(=O)[C@H](Cc2c[nH]c3ccccc23)NC(=O)[C@H](CCC(=O)O)NC(=O)[C@H](CCC(N)=O)NC(=O)[C@H]([C@@H](C)O)NC(=O)CNC(=O)[C@H](C(C)C)NC(=O)[C@H](Cc2ccccc2)NC(=O)[C@H](Cc2ccc(O)cc2)NC1=O [P17-D] (Ac-GDPPLCYFVGTQEWHHCNPFDPGGGK-NH2; disulfide 6-17)
inhibition of KDR activation (10 μM): did not produce significant inhibition of KDR activation

CC[C@H](C)[C@@H]1NC(=O)CNC(=O)[C@H](CC(=O)O)NC(=O)[C@@H]2CCCN2C(=O)[C@H](Cc2c[nH]cn2)NC(=O)[C@H](Cc2ccc(O)cc2)NC(=O)[C@@H](NC(=O)[C@H](CCC(=O)O)NC(=O)[C@@H](NC(=O)[C@H](Cc2c[nH]c3ccccc23)NC(=O)CNC(=O)[C@H](C)NC(C)=O)[C@@H](C)CC)CSSC[C@@H](C(=O)N[C@@H](Cc2ccc(O)cc2)C(=O)N[C@@H](Cc2c[nH]cn2)C(=O)N[C@@H](Cc2ccccc2)C(=O)NCC(=O)N[C@H](C(=O)NCC(=O)NCC(=O)NCC(=O)N[C@@H](CCCCN)C(N)=O)[C@@H](C)O)NC1=O [P2-D] (Ac-AGWIECYHPDGICYHFGTGGGK-NH2; disulfide 6-13)
inhibition at 10 µM: ≥ 50%

Ac-AGPKWC*EEDWYYC*MITGT-GGGK-NH2 [P5-D]
inhibition of VEGF-induced activation of KDR: inhibit activation of KDR

CSCC[C@@H]1NC(=O)[C@H](CC(N)=O)NC(=O)[C@H](CO)NC(=O)[C@H](Cc2c[nH]c3ccccc23)NC(=O)CNC(=O)[C@@H](NC(=O)[C@H](CCC(=O)O)NC(=O)[C@H](Cc2c[nH]c3ccccc23)NC(=O)[C@H](CC(N)=O)NC(=O)[C@H](CC(=O)O)NC(=O)CNC(C)=O)CSSC[C@@H](C(=O)N[C@@H](C)C(=O)N[C@@H](CCCNC(=N)N)C(=O)N2CCC[C@H]2C(=O)N[C@@H](CC(=O)O)C(=O)N2CCC[C@H]2C(=O)NCC(=O)NCC(=O)NCC(=O)N[C@@H](CCCCN)C(N)=O)NC(=O)[C@H](Cc2ccccc2)NC(=O)[C@H](CCC(=O)O)NC(=O)[C@H](CCCCNC(CC(C)C)=C2C(=O)CC(C)(C)CC2=O)NC(=O)[C@H](CCC(N)=O)NC(=O)[C@H](Cc2ccccc2)NC1=O [P20-E] (Ac-GDNWECGWSNMFQ[Lys(ivDde)]EFCARPDPGGGK-NH2; disulfide 6-17)
inhibition of KDR activation (10 μM): did not produce significant inhibition of KDR activation

CC(=O)N[C@@H](C)C(=O)N[C@@H](CCC(N)=O)C(=O)N[C@@H](CCCNC(=N)N)C(=O)NCC(=O)N[C@@H](CC(=O)O)C(=O)N[C@@H](Cc1ccc(O)cc1)C(=O)N[C@@H](CCC(N)=O)C(=O)N[C@@H](CCC(=O)O)C(=O)N[C@@H](CCC(N)=O)C(=O)N[C@@H](Cc1ccc(O)cc1)C(=O)N[C@@H](Cc1c[nH]c2ccccc12)C(=O)N[C@@H](Cc1c[nH]cn1)C(=O)N[C@@H](CCC(N)=O)C(=O)N[C@@H](CCC(N)=O)C(=O)N[C@@H](CC(C)C)C(=O)N[C@H](C(=O)N[C@@H](CCC(=O)O)C(=O)N[C@@H](CCC(N)=O)C(=O)N[C@@H](CC(C)C)C(=O)N[C@@H](CCCCNC(CC(C)C)=C1C(=O)CC(C)(C)CC1=O)C(=O)N[C@@H](CC(C)C)C(=O)N[C@@H](CC(C)C)C(=O)NCC(=O)NCC(=O)NCC(=O)N[C@@H](CCCCN)C(N)=O)C(C)C [P19-E] (Ac-AQRGDYQEQYWHQQLVEQL[Lys(ivDde)]LLGGGK-NH2)
inhibition of KDR activation (10 μM): did not produce significant inhibition of KDR activation
